Measurements published in US20160331871A1, “Medical Devices Containing Nitroprusside and Antimicrobial Agents” (Teleflex Medical Incorporated, priority 2009, published 2016).

System: Pseudomonas aeruginosa
Assay: MIC/FIC determination of SNP alone and in combination with antimicrobial agents (96-well microtiter plate, OD 670 nm)
Format: cell-based, Pseudomonas aeruginosa ATCC 27853
Description: A few colonies of Pseudomonas aerugionsa ATCC 27853 were removed from secondary working cultures plated on Trypticase Soy Agar (hereinafter “TSA”) with 5% sheep's blood and added to 10 ml of Trypticase Soy Broth (hereinafter “TSB”). The vials were vortexed for approximately 30 seconds and incubated for 4 hours in a shaker incubator. Following incubation, they were removed and vortexed once more. The optical densities of the inoculum suspensions were read at a wavelength of 670 nm. The inoculum suspensions were subsequently diluted in sterile Cation Adjusted Mueller-Hinton Broth (hereinafter “CAMHB”) to a final concentration of 1-5×10^6 cfu/ml.
SNP was dissolved and diluted in sterile deionized water to get working concentrations of 1%, 0.9%, 0.8%, 0.7%, 0.6%, 0.5%, 0.4%, 0.3%, 0.2%, and 0.1% in the wells of a 96-well micro titer plate.
Chlorhexidine diacetate (hereinafter “CHA”) and gentian violet (hereinafter “GV”) were dissolved in sterile water. Rifampin (hereinafter “Rif”) was dissolved in dimethylsulfoxide (hereinafter “DMSO”). Silver nano particles were dispersed in sterile water.
A sterile 96 well micro titer plate was used to test the following: SNP alone and SNP in combination with CHA, GV, Rif, and Silver at concentrations as stated above. All tests were performed in triplicate.
Once all test wells had been filled, the lid of the plate was replaced and the plate was inserted into a Ziplock™ bag and sealed to reduce evaporation. Each plate was incubated without shaking at 37° C. for 18-46 hours depending on the microorganism.
After the appropriate incubation time had been met, the micro titer plate was removed from the incubator. The plate was then read on a Bio-Tek plate reader at a wavelength of 670 nm with the lid off.

Structure (SMILES)	MIC/FIC (SNP 0% (agent alone)) [PPM]	inhibitory concentration in combination with SNP as compared to alone	MIC/FIC (in combination with SNP 0.2%) [PPM]	MIC/FIC (in combination with SNP 0.4%)	MIC/FIC (in combination with SNP 0.6%) [PPM]
CO[C@H]1/C=C/O[C@@]2(C)Oc3c(C)c(O)c4c(O)c(c(/C=N/N5CCN(C)CC5)c(O)c4c3C2=O)NC(=O)/C(C)=C\C=C\[C@H](C)[C@H](O)[C@@H](C)[C@@H](O)[C@@H](C)[C@H](OC(C)=O)[C@@H]1C [Rifampin]	16	lower inhibitory concentrations	16	2-4 PPM	0
CC(=O)O.CC(=O)O.NC(=N\CCCCCC/N=C(N)/N=C(\N)Nc1ccc(Cl)cc1)/N=C(\N)Nc1ccc(Cl)cc1 [CHA, Chlorhexidine diacetate]		lower inhibitory concentrations			
N=C(NCCCCCCNC(=N)NC(=N)Nc1ccc(Cl)cc1)NC(=N)Nc1ccc(Cl)cc1.Nc1ccc(P(=O)(O)O)cc1.Nc1ccc(P(=O)(O)O)cc1 [CHP, chlorhexidine dipalmitate]	4		4	1 PPM	0
CN(C)c1ccc(C(=C2C=CC(=[N+](C)C)C=C2)c2ccc(N(C)C)cc2)cc1 [GV, gentian violet]	32	lower inhibitory concentrations	4	4 PPM	0
